What was measured:
[1] = test system: phospho-cdc2 (Tyr15) in HT-29 cells; assay: Effect on Cdc2 phosphorylation at Tyr15, Cell-Based ELISA Base Kit (Method 3); settings: Homo sapiens, HT-29, 8 h, eight hours incubation, normalized to total cdc2, read-out: HT29 pCDC2 method 3
Description: Method 3: Determining the Effect of Compounds on the Cdc2 phosphorylation at Tyr15, using a Cell-Based ELISA Base Kit (R&D Systems, KCB001)
The colorectal cancer cell line, HT-29 was purchased from the ATCC and maintained in McCoy's 5 A medium (Gibco®, Life technologies) supplemented with 10% Foetal Calf Serum (FCS).
The cells were trypsinised and counted, 100 μL of 8000 cells was seeded into each well of a clear-bottom black 96-well microplate and incubated overnight to allow adherence to the surface, at 37° C. and 5% CO2 in a cell culture incubator.
Test compounds were formulated in DMSO and diluted in cell culture medium supplemented with FCS. Grow medium was removed from cells and medium containing compounds dilutions was added to each well. The plate was returned to the incubator for an additional eight hours of incubation at 37° C. and 5% CO2.
Post incubation cells were fixed by replacing the compounds supplemented medium with 100 μL of 4% formaldehyde in 1× phosphate buffered saline (PBS), for 20 minutes at room temperature. Formaldehyde solution was removed and cells were washed three times with PBS. The Cell-Based ELISA assay (R&D Systems) was carried out immediately after cell fixation or the plate was sealed and fixed cells were stored in PBS at 4° C. until required (no more than two weeks).
To continue the assay, PBS was removed and cells were washed 3 times for 5 minutes with 200 μL of 1× wash buffer. Each wash step was carried out with gentle shaking. Following washes, 100 μL of 0.6% H2O2 in 1× wash buffer (quenching buffer) was added, plate was sealed and incubated for 20 minutes at room temperature. Post incubation cells were washes 3 times for 5 minutes with 200 μL of 1× wash buffer, with gentle shaking. 100 μL of blocking buffer was added to each well, the plate was re-sealed and incubated at room temperature for 1 h.
After blocking, cells were washed as described above. A primary antibody mixture was prepared by mixing the two primary antibodies, a rabbit monoclonal antibody for phospho-cdc2 (Tyr15) (Cell Signaling, #4539) and mouse monoclonal antibody for total cdc2 p34 (Santa Cruz Biotechnology, sc-54), diluted 1:25 and 1:50 in blocking buffer, respectively. 60 μL of primary antibody mixture was added to each well, the plate was sealed and incubated overnight at 4° C.
The primary antibodies were removed and cells were washed as previously described. 100 μL of secondary antibody mixture, containing horseradish-peroxidase (HRP)-conjugated goat anti-rabbit IgG and alkaline phosphatase (AP)-conjugated goat anti-mouse IgG, diluted 1:100 in blocking buffer, was added to each test well. The plate was re-sealed and incubated for 2 hours at room temperature.
The secondary antibodies were removed and cells washed 2 times with wash buffer, followed by 2 washes with PBS. Each wash step was carried out for 5 minutes with gentle shaking. PBS was removed and 75 μL of fluorogenic substrate for HRP (substrate F1) added to each well. The plate was sealed and incubated for 1 h at room temperature, in the dark. 75 μL of fluorogenic substrate for AP (substrate F2) was added directly to each well, plate re-sealed and incubated for additional 40 minutes at room temperature, protected from direct light.
Following incubation fluorescence from each well was read at 600 nm (signal from substrate 1, phosphorylated protein) and then at 450 nm (signal from substrate 2, total protein).
The percentage of phospho-cdc2 was calculated compared to DMSO control, normalized to the total cdc2 and plotted versus the concentration of inhibitor, using GraphPad Prism. Data was fitted using a non-linear regression analysis and EC50 values generated.

[2] = CLint estimates using human liver microsomes (Method 4); assay type: in vitro ADME; settings: pH 7.4, 1 μM compound, read-out: Mics - CLint (HLM CLint)
In short: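 Compound at 1 μM (0.1% DMSO) incubated with human liver microsomes (0.5 mg protein/mL) in 0.1 M phosphate pH 7.4 at 37 °C, started with 1 mM NADPH. Samples taken 2–50 min, quenched in methanol, measured by LC/MS/MS (MRM). Half-life and CLint derived from the slope of ln peak area versus time.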

[3] = biological target: T1, Wee-1 kinase (Homo sapiens, UniProt P30291); assay: Measurement of Wee-1 kinase activity (ADP-Glo luminescent kit); assay type: biochemical
T1 construct: purchased Invitrogen PV3817
In short: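 Activated Wee-1 was pre-incubated 30 min at RT with compound in 40 mM Tris-HCl, 20 mM MgCl2, 0.1 mg/mL BSA and 2 mM DTT. The reaction was started with an aliquot of 2.0 μg/mL poly(Lys,Tyr 4:1) plus 30 μM ATP and run 1 h at RT. ADP-Glo luminescence gave IC50 by non-linear fit.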

T1 sequence (P30291 whole entry): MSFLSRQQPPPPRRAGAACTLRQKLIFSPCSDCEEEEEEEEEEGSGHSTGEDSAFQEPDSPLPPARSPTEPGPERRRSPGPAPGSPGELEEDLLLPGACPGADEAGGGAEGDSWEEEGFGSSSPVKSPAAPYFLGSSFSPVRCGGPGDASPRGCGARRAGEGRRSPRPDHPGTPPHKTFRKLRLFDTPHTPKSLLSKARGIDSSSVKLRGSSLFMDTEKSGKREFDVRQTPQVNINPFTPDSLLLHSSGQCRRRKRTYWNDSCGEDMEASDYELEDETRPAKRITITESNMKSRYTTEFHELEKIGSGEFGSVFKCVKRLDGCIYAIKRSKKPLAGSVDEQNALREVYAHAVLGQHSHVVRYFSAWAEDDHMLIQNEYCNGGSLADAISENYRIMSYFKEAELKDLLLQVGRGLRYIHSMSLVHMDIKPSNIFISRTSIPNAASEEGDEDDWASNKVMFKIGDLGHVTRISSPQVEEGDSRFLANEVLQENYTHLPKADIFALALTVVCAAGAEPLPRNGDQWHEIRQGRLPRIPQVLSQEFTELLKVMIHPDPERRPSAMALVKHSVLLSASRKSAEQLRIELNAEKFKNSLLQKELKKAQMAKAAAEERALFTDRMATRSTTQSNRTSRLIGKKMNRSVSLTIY

SMILES | microsomal CLint at 1 μM [2] [µL/min/mg] | IC50 [3] [nM] | EC50 [1] [nM]
COC[C@H]1CN(c2ccc(Nc3ncc4c(n3)N(C)CN(c3c(F)cccc3Cl)C4=O)cc2)CCN1 [Example 126, (R)-3-(2-chloro-6-fluorophenyl)-7-((4-(3-(methoxymethyl)piperazin-1-yl)phenyl)amino)-1-methyl-2,3-dihydropyrimido[4,5-d]pyrimidin-4(1H)-one] | ≤ 15 | 10 to 100 | ≥ 1000
CN1CCN(c2ccc(Nc3ncc4c(n3)N(C)CN(c3c(Cl)cccc3Cl)C4=O)cc2)CC1 [Example 117, 3-(2,6-dichlorophenyl)-1-methyl-7-((4-(4-methylpiperazin-1-yl)phenyl)amino)-2,3-dihydropyrimido[4,5-d]pyrimidin-4(1H)-one] | 15 to 50 | 10 to 100 | 100 to 1000
CN1CCC(c2ccc(Nc3ncc4c(n3)N(C)CN(c3c(Cl)cccc3Cl)C4=O)cc2)CC1 [Example 95, 3-(2,6-dichlorophenyl)-1-methyl-7-((4-(1-methylpiperidin-4-yl)phenyl)amino)-2,3-dihydropyrimido[4,5-d]pyrimidin-4(1H)-one] | ≤ 15 | ≤ 10 | 100 to 1000
CN(C)CC(=O)N1CCN(c2ccc(Nc3ncc4c(n3)N(C)CN(c3c(Cl)cccc3Cl)C4=O)cc2)CC1 [Example 123, 3-(2,6-dichlorophenyl)-7-((4-(4-(2-(dimethylamino)acetyl)piperazin-1-yl)phenyl)amino)-1-methyl-2,3-dihydropyrimido[4,5-d]pyrimidin-4(1H)-one] | ≥ 50 | ≤ 10 | 100 to 1000
CN1CN(c2c(Cl)cccc2Cl)C(=O)c2cnc(Nc3ccc(N4CCN(C)C(C)(C)C4)cc3)nc21 [Example 63, 3-(2,6-dichlorophenyl)-1-methyl-7-((4-(3,3,4-trimethylpiperazin-1-yl)phenyl)amino)-2,3-dihydropyrimido[4,5-d]pyrimidin-4(1H)-one] | 15 to 50 | ≤ 10 | 100 to 1000
CN1Cc2cc(Nc3ncc4c(n3)N(C)CN(c3c(Cl)cccc3Cl)C4=O)ccc2C2(CC2)C1 [Example 76, 3-(2,6-dichlorophenyl)-1-methyl-7-((2′-methyl-2′,3′-dihydro-1′H-spiro[cyclopropane-1,4′-isoquinolin]-7′-yl)amino)-2,3-dihydropyrimido[4,5-d]pyrimidin-4(1H)-one] | ≥ 50 | ≤ 10 | 100 to 1000
CCN1CCN(c2ccc(Nc3ncc4c(n3)N(C)CN(c3c(Cl)cccc3Cl)C4=O)cc2CO)CC1 [Example 72, 3-(2,6-dichlorophenyl)-7-((4-(4-ethylpiperazin-1-yl)-3-(hydroxymethyl)phenyl)amino)-1-methyl-2,3-dihydropyrimido[4,5-d]pyrimidin-4(1H)-one] | ≤ 15 | ≤ 10 | 100 to 1000
CNCc1cc(Nc2ncc3c(n2)N(C)CN(c2c(Cl)cccc2Cl)C3=O)ccc1N1CCC(F)(F)CC1 [Example 147, 3-(2,6-dichlorophenyl)-7-((4-(4,4-difluoropiperidin-1-yl)-3-((methylamino)methyl)phenyl)amino)-1-methyl-2,3-dihydropyrimido[4,5-d]pyrimidin-4(1H)-one] | ≤ 15 | ≤ 10 | 100 to 1000
C[C@@H]1CN(c2ccc(Nc3ncc4c(n3)N(C)CN(c3c(Cl)cccc3Cl)C4=O)cc2CO)C[C@H](C)N1 [Example 158, 3-(2,6-dichlorophenyl)-7-((4-((3S,5R)-3,5-dimethylpiperazin-1-yl)-3-(hydroxymethyl)phenyl)amino)-1-methyl-2,3-dihydropyrimido[4,5-d]pyrimidin-4(1H)-one] | ≤ 15 | ≤ 10 | 100 to 1000
Cc1cccc(Cl)c1N1CN(C)c2nc(Nc3ccc(N4CC5CCC(C4)N5C)c(CO)c3)ncc2C1=O [Example 114, 3-(2-chloro-6-methylphenyl)-7-((3-(hydroxymethyl)-4-(8-methyl-3,8-diazabicyclo[3.2.1]octan-3-yl)phenyl)amino)-1-methyl-2,3-dihydropyrimido[4,5-d]pyrimidin-4(1H)-one] | ≤ 15 | ≤ 10 | 100 to 1000
CC(=O)N1CCN(c2ccc(Nc3ncc4c(n3)N(C)CN(c3c(Cl)cccc3Cl)C4=O)cc2CN(C)C)CC1 [Example 144, 7-((4-(4-acetylpiperazin-1-yl)-3-((dimethylamino)methyl)phenyl)amino)-3-(2,6-dichlorophenyl)-1-methyl-2,3-dihydropyrimido[4,5-d]pyrimidin-4(1H)-one] | 15 to 50 | ≤ 10 | 100 to 1000

Continued, in another order:

microsomal CLint at 1 μM [2] [µL/min/mg] | IC50 [3] [nM] | SMILES | EC50 [1] [nM]
≤ 15 | ≤ 10 | CC(C)N1CCN(c2ccc(Nc3ncc4c(n3)N(C)CN(c3c(F)cccc3Cl)C4=O)cc2CO)CC1 [Example 89, 3-(2-chloro-6-fluorophenyl)-7-((3-(hydroxymethyl)-4-(4-isopropylpiperazin-1-yl)phenyl)amino)-1-methyl-2,3-dihydropyrimido[4,5-d]pyrimidin-4(1H)-one] | 100 to 1000
≤ 15 | ≤ 10 | Cc1cc(Nc2ncc3c(n2)N(C)CN(c2c(F)cccc2Cl)C3=O)ccc1N1CCNCC1 [Example 55, 3-(2-chloro-6-fluorophenyl)-1-methyl-7-((3-methyl-4-(piperazin-1-yl)phenyl)amino)-2,3-dihydropyrimido[4,5-d]pyrimidin-4(1H)-one] | 100 to 1000
≤ 15 | ≤ 10 | CNCc1cc(Nc2ncc3c(n2)N(C)CN(c2c(Cl)cccc2Cl)C3=O)ccc1N1CCN(C(C)=O)CC1 [Example 143, 7-((4-(4-acetylpiperazin-1-yl)-3-((methylamino)methyl)phenyl)amino)-3-(2,6-dichlorophenyl)-1-methyl-2,3-dihydropyrimido[4,5-d]pyrimidin-4(1H)-one] | ≥ 1000
≤ 15 | ≤ 10 | CN(C)Cc1cc(Nc2ncc3c(n2)N(C)CN(c2c(Cl)cccc2Cl)C3=O)ccc1N1CCS(=O)(=O)CC1 [Example 149, 3-(2,6-dichlorophenyl)-7-((3-((dimethylamino)methyl)-4-(1,1-dioxidothiomorpholino)phenyl)amino)-1-methyl-2,3-dihydropyrimido[4,5-d]pyrimidin-4(1H)-one] | 100 to 1000
15 to 50 | ≤ 10 | CN(C)CC(=O)N1CCN(c2ccc(Nc3ncc4c(n3)N(C)CN(c3c(Cl)cccc3Cl)C4=O)cc2CO)CC1 [Example 161, 3-(2,6-dichlorophenyl)-7-((4-(4-(2-(dimethylamino)acetyl)piperazin-1-yl)-3-(hydroxymethyl)phenyl)amino)-1-methyl-2,3-dihydropyrimido[4,5-d]pyrimidin-4(1H)-one] | 100 to 1000
≥ 50 | ≤ 10 | C[C@@H]1CN(c2ccc(Nc3ncc4c(n3)N(C)CN(c3c(Cl)cccc3Cl)C4=O)cc2CN(C)C)C[C@H](C)O1 [Example 151, 3-(2,6-dichlorophenyl)-7-((3-((dimethylamino)methyl)-4-((2S,6R)-2,6-dimethylmorpholino)phenyl)amino)-1-methyl-2,3-dihydropyrimido[4,5-d]pyrimidin-4(1H)-one] | 100 to 1000

Reference: patent publication US9850247B2 (Almac Discovery Limited, priority 2013, dated 2017)
